Measured values reported in patent US12173317B2, “Use of histone modifiers to reprogram effector T cells” (Board of Regents, The University of Texas System, priority 2018, dated 2024).
“Also recorded” adds a separate entry of the source.

How the values were obtained:
STAT3 = experiment: Western blot of IL-21-induced pSTAT3; type: cell-based, human
Protocol: (§1) Polyclonal stimulation of CD8^+ T cells: Naïve CD8^+ T cells (CD8^+CD45RA^+CCR7^+) were flow cytometry-sorted or were isolated using EasySep™ Human Naïve CD8^+ T Cell Enrichment Kit (StemCell). In some experiments, total CD8^+ T cells were negatively selected using EasySep™ Human CD8^+ T Cell Enrichment Kit (StemCell). The purity of the naïve or total CD8^+ T cells was greater than 95% as determined by flow cytometry. CD8^+ T cells were cultured in RPMI 1640 with 10% fetal bovine serum and penicillin/streptomycin. CD8^+ T cells were activated using Dynabeads® Human T-Activator CD3/CD28 for T-Cell Expansion and Activation (Life Technologies) at a bead:cell ratio of 1:1 or together with 30 ng/mL human IL-21 (Peprotech). At the indicated time points, T cells were harvested and beads were removed using a magnet before downstream analysis.
(§2) Western Blot analysis: Equal number of cells was lysed in 2×SDS loading buffer and loaded for immunoblot analysis with different antibodies (Cell Signaling). Anti-β-actin-HRP was from Santa Cruz Biotech. β-actin was used as the loading control for all immunoblot experiments. The results were quantified using ImageJ and normalized to the density of actin in the corresponding samples.

STAT1 = experiment: Western blot of pSTAT1; type: cell-based, human; settings: naïve CD8+ T cells, anti-CD3/CD28 beads, 30 minutes after activation
Protocol: as §1, §2

STAT5 = experiment: Western blot of pSTAT5; type: cell-based, human; settings: naïve CD8+ T cells, anti-CD3/CD28 beads, 30 minutes after activation
Protocol: as §1, §2

[1] = test system: MART1 (M27)-specific effector CD8+ T cells; experiment: CD28 level on M27-specific effector CD8+ T cells by flow cytometry; type: cell-based, human; settings: activation with M27-pulsed mature dendritic cells, 4 days
Protocol: The present studies were performed to develop a method to reprogram or de-differentiate effector T cells that express CD45RO to central memory T cells that express CD62L and CD28 (FIG. 8). The effect of IL-21 and histone deacetylase inhibitor (HDACi) treatment on central memory markers CD28 and CD62L was evaluated. MART1 (M27)-specific effector CD8^+ T cells were untreated or pretreated with SAHA for 24 hours, followed by activation with M27-pulsed mature dendritic cells in the presence or absence of SAHA/IL-21 for 4 days.
(§3) Flow Cytometry: Cells were stained with antibodies against CD8, CD28, CD62L or CD132. All FACS data were acquired via an LSR II flow cytometer and analyzed via FlowJo software (Tree Star, Inc.).
To assess the effect of SAHA/IL-21 on CD28 expression in the context of a more physiologic, antigen-specific (in contrast to non-specific polyclonal) stimulation, this effect was evaluated on MART1 (M27)-specific effector/effector memory cells generated using peptide-pulsed autologous dendritic cells. MART1 (M27)-specific effector CD8^+ T cells (CD45RO^+, CD28-neg, CD62L-neg) were generated following iterative cycles of in vitro stimulation, tetramer-guided sorting of M27-specific CTL and expansion to uniformity (>95% MART-1-specific effector CTL). First, the effect of SAHA was evaluated on pSTAT3 binding to the CD28 promoter region. […]

CD28 promoter = experiment: Chromatin immunoprecipitation (ChIP) on the CD28 promoter; type: cell-based, human
Protocol: Chromatin immunoprecipitation (ChIP): ChIP was performed using a ChIP Assay Kit according to the manufacturer's instructions (Millipore). Quantitative real-time PCR was performed with primers: CD28 promoter proximal STAT sites: forward […] (SEQ ID NO:10), reverse […] (SEQ ID NO: 11); distal STAT sites: forward […] (SEQ ID NO: 12), reverse […] (SEQ ID NO: 13); Rabbit IgG was used as a negative control.

[2] = test system: tumor antigen-specific CTL lines; experiment: REP and mini-REP expansion fold of CTLs; type: cell-based, human; settings: 2 weeks
Protocol: The TILs were cultured from patient melanoma tumors. […] After 14 days, cells were used for further analyses. For studies with SAHA (FIG. 2), SAHA was used at […].
Mini-REP was started scaling down from T25 flasks to 24-well plates accordingly. IL-21 and Panobinostat dose remained unchanged.
To examine the clinical applicability of Panobinostat (Pano) in the setting of antigen-specific ACT, MART1 (M27)-specific effector/effector memory cells generated via the ETC approach were used and expanded in vitro by REP, as previously described (Yee, 2014). Cells were expanded with four different protocols (regular, adding IL-21 alone, adding Pano alone, or IL-21+Pano). […] It was posited that Panobinostat, like SAHA, enabled STAT3 and other transcription factors/cofactors to access binding sites and induce CD28 and CD62L expression.
The TILs were cultured from patient melanoma tumors. […] After 14 days, cells were used for further analyses.

expanded CTLs = experiment: CFSE proliferation of expanded CTLs with IL-2 or IL-15; type: cell-based, human; settings: 2 days
Protocol: (§4) The expanded TILs/CTLs were also stained with antibodies against CD8 and CD132 and analyzed using the CD8^+ gate. […] In addition, the expanded CTLs were labeled with carboxyfluorescein succinimidyl ester (CFSE) and cultured with IL-2 or IL-15 for 2 days to check cell division. […] (FIG. 4B).
Central memory function associated with the IL-21/Pano-induced CD28^+CD62L^+ population was evaluated by the ability of these central memory-like T cells to undergo homeostatic proliferation in response to IL-7 and IL-15. ETC cells expanded with four different protocols (regular, adding IL-21 alone, adding Pano alone, or IL-21+Pano) were labeled with CFSE and cultured with IL-2, IL-7 or IL-15 for 2 days. […] Adding Panobinostat alone to REP increased cell proliferation in response to IL-15 but not to IL-2. […] Since IL-2 and IL-15 share CD132 (γC) and CD122 receptor subunits, CD132 and CD122 levels were assessed on the surface of these cells.

CD132 (γC) = experiment: CD132 surface level on expanded CTLs by flow cytometry; type: cell-based, human; settings: CD8+ gate
Excerpt: as §4, §3

target tumor cells = experiment: Chromium release assay (CRA); type: cell-based; settings: effector:tumor 20:1, 4 hours, compared with regular expansion
Protocol: Chromium Release Assay (CRA): Tumor cells were labeled with Cr51 before being incubated with antigen-specific CTLs at effector:tumor of 20:1 for 4 hours. The Cr51 amount in the supernatants was measured and the killing efficiency was calculated as % killing=100%×(sample average−average of negative control)/([…]).
Chromium Release Assay (CRA): Tumor cells were labeled with Cr51 before being incubated with antigen-specific CTLs at effector:tumor of 20:1 for 4 hours. The Cr51 amount in the supernatants was measured and the killing efficiency was calculated as % killing=100%×(sample average−average of negative control)/(average of positive control−average of negative control).

[3] = test system: tumor antigen-specific CTL cells; experiment: Intracellular staining of IFN-γ and granzyme B; type: cell-based, human; settings: restimulated with tumor cells
Protocol: Intracellular Staining: The cells were restimulated with tumor cells for 16 hours and stained with antibody against CD8, followed by fixation and staining with antibodies against IFN-γ and granzyme B in permeabilization buffer. The cells were washed and resuspended in FACS buffer before analysis.

human CD8+ T cells = experiment: CD28 expression in polyclonally activated human CD8+ T cells; type: cell-based
Excerpt: (§5) IL-21 upregulates CD28 expression on activated human naïve CD8^+ T cells: CD28 is a pivotal costimulatory molecule for naïve T cell activation and memory T cell function. […] To investigate the molecular mechanisms of IL-21-induced CD28 expression, melanoma antigen recognized by T cells (MART1, M27)-specific CTLs were generated in the absence or presence of IL-21 as previously described (Li et al., 2005). […] To further corroborate the findings, sort-purified naïve human CD8^+ T cells (CD45RA^+CCR7^+) from healthy donors were activated with anti-CD3/CD28 beads in the absence or presence of IL-21 and surface CD28 expression was detected by flow cytometry.
as §1, §3
Quantitative real-dime PCR: Total RNA was prepared using Qiagen RNA purification kit. cDNA. was made using Superscript reverse transcriptase and oligo(dT) primers (Life Technology), and gene expression was detected with a Bio-Rad iCycler Optical System using iQ SYBR green real-time PCR kit (Bio-Rad Laboratories, Inc.). The data were normalized to the reference gene RPL13A. RPL13A primer was purchased from Qiagen. Other primer pairs used were: CD28 forward: […] (SEQ ID NO:2), reverse: […] (SEQ ID NO: 3); CD62L forward: […] (SEQ ID NO: 4), reverse: […] (SEQ ID NO: 5); Additional primers included lymphoid enhancer-binding factor 1 (LEFI) forward: […] (SEQ ID NO: 6), reverse: […] (SEQ ID NO: 7); transcription factor 1 (TCF1) forward: […] (SEQ ID NO: 8), reverse: CCTCGACCGCCTCTTCTTC (SEQ ID NO: 9).
Human shRNA Knockdown: Total CD8^+ T cells were isolated and transfected with 5 μg negative control, STAT1 shRNA, or STAT3 shRNA (Dharmacon) using Amaxa human T cell Nucleofector Kit according to the manufacturer's instructions (Lonza). Transfected cells were rested for 1-2 days and live GFP^+ cells were sort-purified for immunoblot analysis or were stimulated for 7 days as previously described before further analysis.

M27-specific CTLs = experiment: CD28 expression in M27-specific CTLs generated with IL-21; type: cell-based, human
Excerpt: as §5, §3
Quantitative real-dime PCR: Total RNA was prepared using Qiagen RNA purification kit. cDNA. was made using Superscript reverse transcriptase and oligo(dT) primers (Life Technology), and gene expression was detected with a Bio-Rad iCycler Optical System using iQ SYBR green real-time PCR kit (Bio-Rad Laboratories, Inc.). The data were normalized to the reference gene RPL13A. RPL13A primer was purchased from Qiagen. Other primer pairs used were: CD28 forward: […] (SEQ ID NO:2), reverse: […] (SEQ ID NO: 3); CD62L forward: […] […]

[4] = test system: histone H3 acetylation (AcH3); experiment: Western blot of H3 acetylation (AcH3) level; type: cell-based, human
Excerpt: as §2

[5] = test system: tumor infiltrating lymphocytes (TILs)
Protocol: The effect of IL-21 and Panobinostat in the clinical-relevant TIL expansion was assessed.
To examine the possible de-differentiating effect of an HDAC inhibitor/IL-21 combination, TILs were untreated or pretreated with SAHA for 24 hours, then subjected to regular REP (irradiated PBMC and LCL cells, anti-CD3 and IL-2), or REP with SAHA/IL-21.
The TILs were cultured from patient melanoma tumors. […] For studies with SAHA, SAHA was used at 1-5 μM.
TILs were cultured in 50% AIM-V, 50% TIL complete medium which contains RPMI1640, 10% human AB serum, 10 mM HEPES, and 2-Mercaptoethanol. […] IL-21 (30 ng/ml) or HDACi SAHA (1-5 μM) or Panobinostat (1-3 nM) was added on day 0, 4 and 7 if included in the expansion. After 14 days, expanded cells were subjected to further analyses.

## IL-21: Human Interleukin 21, protein cytokine of 162 amino acids (SEQ ID NO:1)
STAT3
  IL-21-induced STAT3 phosphorylation levels, naïve compared with effector CD8+ T-cells: comparable
STAT3; effector CD8+ T cells
  STAT3 phosphorylation: induced STAT3 phosphorylation
STAT3; naïve CD8+ T cells, anti-CD3/CD28 beads, 30 minutes after activation
  STAT3 phosphorylation: strong
STAT1
  STAT1 phosphorylation: strong
STAT5
  STAT5 phosphorylation: weak
[1]
  CD28 expression: slightly increased; also recorded: not observed
CD28 promoter; anti-CD3/CD28 and IL-21 relative to anti-CD3/CD28 alone
  enrichment of STAT3 at proximal and distal CD28 promoter regions: 2-3 fold
[2]; mini-REP
  yield of cell expansion: dramatically increased
[2]; regular REP
  expansion yield / expansion fold: similar
Expanded CTLs
  proliferation in response to IL-2: enhanced
  proliferation in response to IL-15: enhanced
CD132 (γC)
  CD132 (γ chain) surface expression: upregulate; also recorded: significantly increased
Target tumor cells
  tumor cell killing: enhanced
[3]
  IFNγ and granzyme B expression: augmented
Human CD8+ T cells; CD8+ T cells from Job's syndrome patients
  IL-21-mediated enhancement of CD28 expression: completely abrogated
Human CD8+ T cells; STAT1 shRNA-transfected CD8+ T cells
  IL-21-induced CD28 protein and mRNA upregulation diminished: not
Human CD8+ T cells; STAT3 shRNA-transfected CD8+ T cells
  IL-21-induced CD28 protein and mRNA upregulation: diminished
Human CD8+ T cells; activated TEMRA CD8+ T cells
  CD28 expression: minimally upregulated
Human CD8+ T cells; naïve CD8+ T cells, anti-CD3/CD28
  CD28 mRNA level: greatly augmented
Human CD8+ T cells; naïve CD8+ T cells, anti-CD3/CD28 beads
  CD28 surface level expression: significantly increased; also recorded: upregulates
Human CD8+ T cells; total CD8+ T cells from healthy donors
  expression of CD28 at protein and mRNA levels: increased
M27-specific CTLs
  CD28 mRNA level: greatly augmented
M27-specific CTLs; compared with cells generated in the absence of IL-21
  CD28 expression: significantly higher

## O=C(CCCCCCC(=O)Nc1ccccc1)NO [SAHA, Suberoylanilide Hydroxamic Acid]
[4]; H3 and β-actin as loading controls
  AcH3 level by western blot: dose-dependent increase; also recorded: increases H3 acetylation in a dose-dependent manner
[4]; effector CD8+ T cells
  SAHA concentration that augmented AcH3 level: ≥ 1 µM
[4]; titration study, effector CD8+ T cells
  SAHA concentration that could augment AcH3 levels: ≥ 1 µM
[1]
  CD28 expression: upregulated
CD28 promoter; M27-specific effector CD8+ T cells, SAHA 24 hours
  AcH3 level on the CD28 promoter: significantly increased
CD28 promoter; SAHA 24 hours, then IL-21 30 minutes
  IL-21-induced STAT3 (pSTAT3) binding to the CD28 promoter: allowing IL-21-induced STAT3 to bind to the same DNA region; also recorded: increased; also recorded: allows IL-21-induced pSTAT3 to access the CD28 promoter
[5]
  cell death in REP culture: caused dramatic cell death
  viable cells at the end of REP: few viable cells

## Cc1[nH]c2ccccc2c1CCNCc1ccc(/C=C/C(=O)NO)cc1 [Panobinostat]
[4]
  Panobinostat dose that increased AcH3 level: ≥ 0.5 nM
[5]; screen of HDACi
  cytotoxicity: minimal cytotoxicity
